Laboratory results taken from US10765616B2, “Oral formulation of polyglucosamine derivatives in combination with a non-fermentable sugar” (SYNEDGEN, INC., priority 2013, dated 2020).

Tests used:
S. mutans biofilms [1] = assay: MBEC peg biofilm biomass reduction assay of active ingredients (twice daily, OD595); format: cell-based, Streptococcus mutans; details: 2 minutes, 8-hour interval, 32 μg/mL PAAG, 1.5% hydrogen peroxide, alcohol, lactoferrin, chlorhexidine
Procedure: The S. mutans biofilms were grown according to MBEC™ for High-throughput Screening methods (Innovotech) on a hydroxyapatite-coated peg lid placed in trough containing BHI media supplemented with 1% sucrose rocking for 72 hours. The pegs were treated twice daily with PAAG (30% functionalized, 86 kD) active ingredients (FIG. 9) at 8-hour intervals for 2-minutes. The biofilms were rinsed in PBS, and the pegs were removed and placed into 200 μl 95% ethanol each for 2 minutes to fix the biofilms. The MBEC-HTP biofilms were stained with 150 μl of 3% Crystal Violet dye each for 2 minutes, and rinsed five times with PBS. It was noted that chlorhexidine appears to “fix” the biofilm to the pegs. The bacteria may or may not be viable because OD measured biofilm biomass, not viable CFUs. The stained and rinsed MBEC-HTP biofilms were then placed in 150 μL ethanol for 1-minute to remove the dye/biofilm. Then 100 μL of the ethanol and dyed biofilm suspension was placed into a 96-well plate and the OD595 was measured to quantify the remaining stained biofilm biomass.

S. mutans biofilms [2] = assay: Comparative biofilm reduction study of oral rinses and active ingredients (MBEC pegs); format: cell-based, Streptococcus mutans; details: 72 h S. mutans biofilms, treated 2 minutes twice (6-hour interval), vs water control
Procedure: Biofilms of S. mutans were grown on hydroxyapatite-coated pegs according to MBEC Assay™ methods for 72 hours, and then treated with the oral rinses or a water control. The corresponding active ingredients were also evaluated. The biofilms were exposed for 2-minutes, twice in a 6-hour interval to evaluate biofilm removal. Following treatment, biofilms were rinsed, fixed, and stained with 0.4% Crystal Violet, and remaining biofilm was quantitated via CFU or OD595 (Beenken and Smeltzer, 2003). Biofilms were analyzed in triplicate in at least 3 independent assays. Ratios were averaged from all assays and the percent biofilm reduced and standard error compared to water control is shown.

A431 epithelial cells = test system: A431 epithelial cells
Procedure: Human epithelial cell monolayers of A431 (ATCC CRL-1555) were seeded in tissue culture treated 96-well plates at a density of 2×10^4 cells/well in DMEM media supplemented with 10% FBS, 1% Penicillin-Streptomycin, and 1% Amphotericin B. Seeded cells were incubated at 37° C. with 5% CO2 for 48 hours. The media was removed and replaced with serum-free, antimicrobial-free media and rinsed one time for 30 seconds with PAAG Oral Formulation H, other oral products (Biotene, Corsodyl, Peroxyl, or Listerine), 32 μg/mL PAAG (30% functionalized, 86 kDa) and other active ingredients (0.029% lactoferrin, 0.2% chlorhexidine gluconate, 1.5% hydrogen peroxide, or 20% alcohol). Epithelial cell viability was determined by ATPLite Luminescence ATP Detection Assay System (PerkinElmer). Testing was done in duplicate.
Epithelial cell viability was compared between PAAG and other oral active ingredients and oral rinse products. Human epithelial cell monolayers were rinsed once for 30 seconds with each treatment. Following treatment, the epithelial cells were evaluated with ATP LITE Luminecence assay that measured viability via ATP. The data was normalized to untreated cells to compare percent survival (FIG. 4). […] The cells were rinsed once with PAAG Oral Formulation H, other oral rinse products (Biotene, Corsodyl, Peroxyl, or Listerine), oral products active ingredients (0.0032% PAAG, 0.029% lactoferrin (LF), 0.2% chlorhexidine (CHG), 1.5% hydrogen peroxide, or 20% alcohol). PAAG Oral Formulation H contains sorbitol (17.5%), glycerin (10%), xylitol (2.5%), polysorbate 20 (1.5%), peppermint oil (0.2%), benzoic acid (0.3%), sodium fluoride (0.5%), and PAAG (0.0032%). Epithelial cell viability was determined by ATPLite Luminescence ATP Detection Assay System (Perkin Elmer) and compared to media rinsed cells.

S. mutans = assay: PAAG and sorbitol combination bactericidal assay (viable plate counts); format: cell-based, Streptococcus mutans; details: sorbitol 0-25% w/v, 30 minutes
Procedure: A range of sorbitol concentrations (0-25% w/v) was mixed with a range of PAAG concentrations (4-32 μg/mL, 86 kDa, 30% functionalized). S. mutans was exposed to each for 30 minutes before being neutralized with D/E neutralization broth, then diluted and plated for measurement of viable plate counts (CFU).

[3] = active ingredients at the concentration printed in the row or sentence

| Compound | reduction in S. mutans biofilm biomass compared to water control (S. mutans biofilms [1]) | Percent (%) Biomass Reduced (S. mutans biofilms [2]; [3]) | epithelial cell viability (A431 epithelial cells) | other results |
| --- | --- | --- | --- | --- |
| CCO [Alcohol, alcohol] | significant reduction | 39.9 ± 3.9% | – | Percent (%) Biomass Reduced (S. mutans biofilms [2]; active ingredients at the concentration printed in the row or sentence, listed as alcohol): 39.9±3.9% |
| [H]/N=C(\N/C(=N/[H])NCCCCCCNC(=N)NC(=N)Nc1ccc(Cl)cc1)Nc1ccc(Cl)cc1 [Chlorhexidine, chlorhexidine gluconate] | did not significantly reduce | 17.1 ± 4.5% | – | Percent (%) Biomass Reduced (S. mutans biofilms [2]; active ingredients at the concentration printed in the row or sentence, listed as Chlorhexidine gluconate): 17.1±4.5% |
| OO [hydrogen peroxide] | significant reduction | 36.9±3.8% | maintain epithelial cell viability | Percent (%) Biomass Reduced (S. mutans biofilms [2]; active ingredients at the concentration given, listed as H2O2): 36.9 ± 3.8% |
| OC[C@@H](O)[C@@H](O)[C@H](O)[C@@H](O)CO [sorbitol] | – | – | – | effect of sorbitol alone on bacterial viability (S. mutans): did not affect bacterial viability |
| poly (acetyl, arginyl) glucosamine [PAAG] | – | – | maintain epithelial cell viability | cytotoxicity to epithelial cells compared to other oral rinse products (A431 epithelial cells): least cytotoxic |
